Assay results as given in US20240208944A1, “Quinazoline Derivatives, Pharmaceutical Compositions, and Therapeutic Uses Related to Nox Inhibition” (Emory University, priority 2021, published 2024).
Counter-ions that a name gives are not always drawn. Like-named read-outs stand apart in the source and are kept apart here.

Assays:
Cytotoxicity CC50 = type: cell-based
NOX-2 = NOX-2 (Homo sapiens (Human), UniProt P04839); assay: NOX-2 inhibition (Nox assays); type: biochemical
NOX-4 = NOX-4 (Homo sapiens (Human), UniProt Q9NPH5); assay: NOX-4 inhibition (Nox assays); type: biochemical
[1] = Mouse liver microsomal stability; type: in vitro ADME; settings: mouse liver microsomes; read-out: MLM T1/2
Experimental: (§1) The aqueous solubility, liver microsomal stability, and in vivo pharmacokinetics were determined. […] These derivatives have requisite stability in mouse liver microsomes.

[2] = In vivo pharmacokinetics in Sprague Dawley rats; design: species or system rat; settings: for half-life: male SD rats
Description: The compound has a brain-to-plasma ratio >10.
In Vivo Pharmacokinetics for Compound TG15-132S in Sprague Dawley (SD) Rats.

THP1 monocytic cells = assay: PMA-induced mRNA levels of NOX2, its subunits and inflammatory markers in THP1 cells; type: cell-based; settings: THP1 cells treated with PMA 100 ng/ml
Description: These markers are suppressed by the treatment of NOX2 inhibitor TG15-132.HCI.

[3] = Aqueous (water) solubility; type: physicochemical; settings: for solubility: water
Experimental: as §1

Chain of NOX-4 (Q9NPH5 whole entry, species assumed): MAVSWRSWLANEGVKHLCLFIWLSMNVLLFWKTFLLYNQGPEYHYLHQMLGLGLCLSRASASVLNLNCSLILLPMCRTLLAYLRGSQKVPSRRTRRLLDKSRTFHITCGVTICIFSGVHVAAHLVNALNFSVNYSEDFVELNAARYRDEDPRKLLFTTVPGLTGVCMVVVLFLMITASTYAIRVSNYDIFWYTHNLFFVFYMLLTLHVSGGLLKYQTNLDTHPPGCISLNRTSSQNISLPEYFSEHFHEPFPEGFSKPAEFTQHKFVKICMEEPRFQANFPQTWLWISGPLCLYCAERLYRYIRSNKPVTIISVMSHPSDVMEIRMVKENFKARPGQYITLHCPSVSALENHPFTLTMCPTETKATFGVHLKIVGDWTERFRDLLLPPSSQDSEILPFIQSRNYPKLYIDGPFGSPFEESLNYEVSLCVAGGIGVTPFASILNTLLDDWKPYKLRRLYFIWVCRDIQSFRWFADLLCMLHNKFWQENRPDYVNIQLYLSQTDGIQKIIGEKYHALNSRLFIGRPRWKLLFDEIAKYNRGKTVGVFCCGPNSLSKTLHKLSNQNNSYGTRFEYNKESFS
Chain of NOX-4 (P13498 whole entry partner, species assumed): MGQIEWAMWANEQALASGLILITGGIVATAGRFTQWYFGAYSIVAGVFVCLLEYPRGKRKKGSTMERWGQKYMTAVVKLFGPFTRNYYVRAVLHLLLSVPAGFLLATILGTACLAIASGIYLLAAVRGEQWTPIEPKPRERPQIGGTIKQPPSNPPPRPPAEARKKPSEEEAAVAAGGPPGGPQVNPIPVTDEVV
Chain of NOX-2 (P04839 2-570, species assumed): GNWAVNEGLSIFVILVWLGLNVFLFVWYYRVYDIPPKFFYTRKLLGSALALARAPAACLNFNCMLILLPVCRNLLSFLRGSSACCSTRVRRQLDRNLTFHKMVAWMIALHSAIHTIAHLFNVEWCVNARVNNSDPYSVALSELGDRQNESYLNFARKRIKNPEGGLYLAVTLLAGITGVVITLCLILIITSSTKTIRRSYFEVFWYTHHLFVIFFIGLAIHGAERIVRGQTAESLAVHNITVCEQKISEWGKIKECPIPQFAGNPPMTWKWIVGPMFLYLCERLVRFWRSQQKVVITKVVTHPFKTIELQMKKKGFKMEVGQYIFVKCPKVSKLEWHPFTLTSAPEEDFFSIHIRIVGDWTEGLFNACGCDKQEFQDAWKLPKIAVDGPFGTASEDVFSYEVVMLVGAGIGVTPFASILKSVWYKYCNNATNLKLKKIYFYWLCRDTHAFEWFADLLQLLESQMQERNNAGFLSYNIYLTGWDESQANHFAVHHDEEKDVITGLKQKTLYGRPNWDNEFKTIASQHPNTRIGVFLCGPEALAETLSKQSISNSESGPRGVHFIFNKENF
Chain of NOX-2 (P13498 whole entry partner, species assumed): as the sequence (P13498 whole entry partner, species assumed) above

Row | Compound | IC50 (NOX-2) [µM] | IC50 (NOX-4) [µM] | CC50 (Cytotoxicity CC50) [µM] | other results
1 | CN(C)CCCn1c(SCc2ccccn2)nc2ccc(F)cc2c1=O [LY5-10, 3-(3-(dimethylamino)propyl)-6-fluoro-2-((pyridin-2-ylmethyl)thio)quinazolin-4(3H)-one] | > 100 |  |  | 
2 | CN(C)CCCn1c(SCCCc2ccccn2)nc2ccc(F)cc2c1=O [LY5-11, 3-(3-(dimethylamino)propyl)-6-fluoro-2-((3-(pyridin-2-yl)propyl)thio)quinazolin-4(3H)-one] | > 100 |  |  | 
3 | CN(C)CCCn1c(SCCc2ccccn2)nc2ccc(F)cc2c1=O [TG15-131-HCl, 3-(3-(dimethylamino)propyl)-6-fluoro-2-((2-(pyridin-2-yl)ethyl)thio)quinazolin-4(3H)-one] | > 50 |  |  | 
4 | CN(C)CCCn1c(SCCc2c[nH]c3ccccc23)nc2ccc(F)cc2c1=O.Cl [TG15-132S, 2-((2-(1H-indol-3-yl)ethyl)thio)-3-(3-(dimethylamino)propyl)-6-fluoroquinazolin-4(3H)-one, hydrochloride] | 3.3 | 26 | > 20 | half-life [1]: 0.4 h; clearance rate ([2]; SD rats, single 20 mg/kg IP): 32.75 mL/min/kg; half-life ([2]; Sprague-Dawley, rat, 20 mg/kg IP, brain, read-out: half-life in the brain): > 5 h; half-life ([2]; Sprague-Dawley, rat, 20 mg/kg IP, plasma, read-out: half-life in plasma): > 5 h; Kp ([2]; male, Sprague-Dawley, brain and plasma, rat, 20 mg/kg IP, read-out: In vivo B/P Ratio (brain-to-plasma ratio)): > 10; In vivo B/P Ratio (brain-to-plasma ratio) ([2]; rat, 20 mg/kg IP, hydrochloride): >10; mRNA levels of NOX2 (gp91phox), p47phox, p67phox, IL-1beta and TNF (THP1 monocytic cells): suppressed; water solubility (in words) [3]: excellent water solubility; solubility [3]: 1200 µM
5 | CC(C)N1CCN(CCCn2c(SCCc3c[nH]c4ccccc34)nc3ccc(F)cc3c2=O)CC1 [TG17-57, 2-((2-(1H-indol-3-yl)ethyl)thio)-6-fluoro-3-(3-(4-isopropylpiperazin-1-yl)propyl)quinazolin-4(3H)-one] | 2.4 |  |  | 

Now from value to compound, other results behind:

Row | IC50 (NOX-2) [µM] | IC50 (NOX-4) [µM] | Compound | CC50 (Cytotoxicity CC50) [µM] | other results
6 | 2.3 | > 50 | O=C(CCCn1c(=S)[nH]c2ccccc2c1=O)N1CCN(c2ccccc2O)CC1 [Compd. 43, 3-(4-(4-(2-hydroxyphenyl)piperazin-1-yl)-4-oxobutyl)-2-thioxo-2,3-dihydroquinazolin-4(1H)-one] | > 20 | 
7 | 3.3 | 8.3 | O=C(CCCn1c(=S)[nH]c2ccc(F)cc2c1=O)N1CCN(c2ccccc2O)CC1 [LY4-123S, 6-fluoro-3-(4-(4-(2-hydroxyphenyl)piperazin-1-yl)-4-oxobutyl)-2-thioxo-2,3-dihydroquinazolin-4(1H)-one] |  | 
8 | > 100 |  | CN(C)CCCn1c(SCCc2ccccn2)nc2ccc(Cl)cc2c1=O [TG15-124-HCl, 6-chloro-3-(3-(dimethylamino)propyl)-2-((2-(pyridin-2-yl)ethyl)thio)quinazolin-4(3H)-one] | > 10 | 
9 | 1.65 | 32 | CN(C)CCCn1c(SCCc2c[nH]c3ccccc23)nc2ccc(Cl)cc2c1=O.Cl [TG15-139S, 2-((2-(1H-indol-3-yl)ethyl)thio)-6-chloro-3-(3-(dimethylamino)propyl)quinazolin-4(3H)-one. Hydrochloride] | > 10 | half-life [1]: 1.25 h; Kp at 8 h ([2]; male, Sprague-Dawley, rat, brain and plasma, SD rats, single 20 mg/kg IP, up to 8 h, read-out: brain-to-plasma ratio up to 8 h): > 10; Kp ([2]; male, Sprague-Dawley, rat, brain and plasma, SD rats, single 20 mg/kg IP, read-out: brain-to-plasma ratio): > 23; water solubility (in words) [3]: excellent water solubility; solubility [3]: 2350 µM
